From patent EP2308883A1, “New derivatives of thieno[2,3-b]pyridine and 5,6,7,8 tetrahydrothieno[2,3 b]quinoline in particular useful in the treatment of malaria” (priority 2009, dated 2011)

How the values were obtained:
[1] = target: T1, GSK-3 (Trypanosoma cruzi, UniProt Q4E1X0); test: Species specificity: recombinant tagged GSK-3 orthologue kinase assay; format: biochemical; conditions: read-out: IC50 Trypanopsoma cruzi; calculated from dose-response curves; -(100) taken as no inhibition at 100
T1 sequence (Q4E1X0 1-353): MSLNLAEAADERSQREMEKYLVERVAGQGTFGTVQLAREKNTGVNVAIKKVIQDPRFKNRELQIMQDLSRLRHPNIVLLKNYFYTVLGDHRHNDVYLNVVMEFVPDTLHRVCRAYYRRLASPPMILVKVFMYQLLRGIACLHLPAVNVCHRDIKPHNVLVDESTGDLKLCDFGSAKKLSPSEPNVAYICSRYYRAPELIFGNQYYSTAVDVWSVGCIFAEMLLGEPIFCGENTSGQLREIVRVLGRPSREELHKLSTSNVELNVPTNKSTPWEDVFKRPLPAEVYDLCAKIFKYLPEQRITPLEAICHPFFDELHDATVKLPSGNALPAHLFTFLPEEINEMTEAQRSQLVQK

[2] = target: T2, GSK-3 (Plasmodium knowlesi, UniProt A0A679KU36); test: as above; format: biochemical; conditions: read-out: IC50 Plasmodium knowlesi; calculated from dose-response curves
T2 sequence (A0A679KU36 1-473): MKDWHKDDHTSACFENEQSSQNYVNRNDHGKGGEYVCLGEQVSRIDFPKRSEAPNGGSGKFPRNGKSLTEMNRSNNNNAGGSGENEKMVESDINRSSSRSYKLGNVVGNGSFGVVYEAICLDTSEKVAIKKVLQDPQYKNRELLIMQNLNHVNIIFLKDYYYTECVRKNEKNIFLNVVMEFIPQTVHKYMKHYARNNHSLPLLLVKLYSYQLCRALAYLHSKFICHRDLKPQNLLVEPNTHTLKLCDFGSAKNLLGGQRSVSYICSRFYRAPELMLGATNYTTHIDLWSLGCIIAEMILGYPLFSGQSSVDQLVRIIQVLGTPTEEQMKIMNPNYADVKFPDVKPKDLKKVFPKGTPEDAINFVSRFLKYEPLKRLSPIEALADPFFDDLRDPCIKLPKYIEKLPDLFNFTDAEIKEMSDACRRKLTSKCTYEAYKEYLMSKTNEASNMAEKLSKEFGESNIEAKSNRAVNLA

[3] = target: T3, GSK-3 (Leishmania major, UniProt Q4QE15); test: as above; format: biochemical, Leishmania majo
T3 construct: made in house
T3 sequence (Q4QE15 entry or part of it): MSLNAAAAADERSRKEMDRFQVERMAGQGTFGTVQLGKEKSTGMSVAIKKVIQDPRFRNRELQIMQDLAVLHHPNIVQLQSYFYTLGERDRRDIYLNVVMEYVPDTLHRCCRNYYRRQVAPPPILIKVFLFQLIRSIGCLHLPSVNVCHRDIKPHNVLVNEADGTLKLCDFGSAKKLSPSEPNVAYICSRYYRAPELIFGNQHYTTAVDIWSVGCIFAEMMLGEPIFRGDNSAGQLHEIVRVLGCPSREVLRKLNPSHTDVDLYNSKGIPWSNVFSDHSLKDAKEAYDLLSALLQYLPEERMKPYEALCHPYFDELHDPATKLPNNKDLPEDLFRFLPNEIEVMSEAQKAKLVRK
Text: (§1) Given the strong conservation of GSK-3 across evolution and the surprising selectivity of the compounds according to the present invention towards PfGSK-3 versus mammalian GSK-3, a selection of 12 GSK-3 orthologues of various species chosen on the "tree of life" analyzed. The species belong to the Apicomplexa (P. falciparum, P. vivax, P. knowlesi and P. berghei (Gardner, M.J. et al. Genome sequence of the human malaria parasite Plasmodium falciparum. Nature 419, 498-511 (2002); Carlton, J.M. et al. Comparative genomics of the neglected human malaria parasite Plasmodium vivax. Nature 455, 799-803 (2008); Pain, A. et al. The genome of the simian and human malaria parasite Plasmodium knowlesi. Nature 455, 799-803 (2008).). Toxoplasma gondii (Qin, C.L., Tang, J. and Kim, K. Cloning and in vitro expression of TPK3, a Toxoplasma gondii homologue of shaggy/glycogen synthase kinase-3 kinases. Mol. Biochem. Parasitol. 93, 273-283 (1998)), Cryptosporidium parvum.
(§2) Following PCR amplification from cDNA libraries or direct synthesis based on databases sequences, the GSK-3 genes were inserted in appropriate expression vectors and recombinant, tagged kinases were expressed, affinity purified and assayed in the presence of up to 10-100µM of each compound of formula (I) according to the present invention and a selection of the PfGSK-3 inhibitors.

[4] = target: T4, GSK-3 (Toxoplasma gondii, UniProt O44002); test: as above; format: biochemical, Toxaplasma grondii
T4 sequence (O44002 1-394): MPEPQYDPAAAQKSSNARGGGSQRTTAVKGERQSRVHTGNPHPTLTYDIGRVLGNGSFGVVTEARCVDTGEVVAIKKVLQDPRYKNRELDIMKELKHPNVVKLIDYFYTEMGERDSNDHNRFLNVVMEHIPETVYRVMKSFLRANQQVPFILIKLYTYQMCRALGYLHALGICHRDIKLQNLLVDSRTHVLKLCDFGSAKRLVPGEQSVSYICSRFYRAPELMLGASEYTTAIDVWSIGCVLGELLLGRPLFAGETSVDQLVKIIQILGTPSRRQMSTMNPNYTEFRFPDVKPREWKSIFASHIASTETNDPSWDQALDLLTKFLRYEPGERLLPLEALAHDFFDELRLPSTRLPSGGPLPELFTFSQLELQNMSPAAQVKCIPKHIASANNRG

[5] = target: T5, GSK-3 (Plasmodium falciparum, UniProt O77344); test: as above; format: biochemical
T5 construct: made in house
Text: as §1, §2

[6] = target: T6, GSK-3 (Dictyostelium discoideum, UniProt P51136); test: as above; format: biochemical
T6 construct: made in house
T6 sequence (P51136 whole entry): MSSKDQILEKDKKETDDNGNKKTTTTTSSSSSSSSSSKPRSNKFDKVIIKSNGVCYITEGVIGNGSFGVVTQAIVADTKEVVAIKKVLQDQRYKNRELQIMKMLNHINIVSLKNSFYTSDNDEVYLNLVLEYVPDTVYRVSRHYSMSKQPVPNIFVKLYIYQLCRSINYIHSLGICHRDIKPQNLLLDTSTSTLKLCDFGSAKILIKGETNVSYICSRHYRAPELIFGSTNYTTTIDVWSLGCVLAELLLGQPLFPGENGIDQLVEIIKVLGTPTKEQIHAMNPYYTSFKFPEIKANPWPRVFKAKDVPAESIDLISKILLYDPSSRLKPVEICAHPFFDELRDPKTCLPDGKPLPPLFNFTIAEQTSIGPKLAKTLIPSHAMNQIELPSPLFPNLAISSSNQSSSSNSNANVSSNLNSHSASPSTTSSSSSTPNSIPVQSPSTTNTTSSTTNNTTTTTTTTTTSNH
Text: as §1, §2

[7] = target: GSK-3 α/β; test: as above; format: biochemical; conditions: calculated from dose-response curves; -(100) taken as no inhibition at 100; read-out: IC50 Sus scrofa (GSK-3 α/β)
Text: as §1, §2

[8] = target: T7, GSK-3 α (Homo sapiens, UniProt P49840); test: as above; format: biochemical; conditions: calculated from dose-response curves; -(100) taken as no inhibition at 100
T7 construct: made in house
T7 sequence (P49840 whole entry): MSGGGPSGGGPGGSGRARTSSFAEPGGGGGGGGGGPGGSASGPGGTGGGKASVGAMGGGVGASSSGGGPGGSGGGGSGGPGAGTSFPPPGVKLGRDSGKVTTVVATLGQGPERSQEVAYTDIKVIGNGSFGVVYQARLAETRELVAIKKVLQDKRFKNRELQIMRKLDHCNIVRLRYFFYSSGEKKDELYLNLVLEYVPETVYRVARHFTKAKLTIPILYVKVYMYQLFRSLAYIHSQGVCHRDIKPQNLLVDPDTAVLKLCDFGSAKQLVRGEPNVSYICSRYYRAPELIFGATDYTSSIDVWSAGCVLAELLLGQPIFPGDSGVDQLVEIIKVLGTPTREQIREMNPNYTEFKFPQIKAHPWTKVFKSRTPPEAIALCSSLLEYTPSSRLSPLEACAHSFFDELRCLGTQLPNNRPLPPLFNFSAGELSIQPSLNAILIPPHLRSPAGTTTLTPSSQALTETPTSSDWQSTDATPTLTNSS
Text: as §1, §2

[9] = target: T8, GSK-3 (Leishmania donovani, UniProt A6N857); test: as above; format: biochemical; conditions: read-out: IC50 Leishmania donovani; calculated from dose-response curves
T8 sequence (A6N857 1-355): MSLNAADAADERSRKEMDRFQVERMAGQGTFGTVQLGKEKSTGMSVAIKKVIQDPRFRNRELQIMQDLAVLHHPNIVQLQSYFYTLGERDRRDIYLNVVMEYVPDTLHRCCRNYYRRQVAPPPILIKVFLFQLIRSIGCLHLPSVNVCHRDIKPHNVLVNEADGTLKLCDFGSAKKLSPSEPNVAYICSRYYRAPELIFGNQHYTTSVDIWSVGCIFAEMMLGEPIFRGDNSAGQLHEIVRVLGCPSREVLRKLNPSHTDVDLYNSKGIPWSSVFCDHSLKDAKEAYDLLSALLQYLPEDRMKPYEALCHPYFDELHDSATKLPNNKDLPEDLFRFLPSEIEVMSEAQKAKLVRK

[10] = target: T9, GSK-3 (Cryptosporidium parvum, UniProt A3FQN0); test: as above; format: biochemical
T9 sequence (A3FQN0 1-433): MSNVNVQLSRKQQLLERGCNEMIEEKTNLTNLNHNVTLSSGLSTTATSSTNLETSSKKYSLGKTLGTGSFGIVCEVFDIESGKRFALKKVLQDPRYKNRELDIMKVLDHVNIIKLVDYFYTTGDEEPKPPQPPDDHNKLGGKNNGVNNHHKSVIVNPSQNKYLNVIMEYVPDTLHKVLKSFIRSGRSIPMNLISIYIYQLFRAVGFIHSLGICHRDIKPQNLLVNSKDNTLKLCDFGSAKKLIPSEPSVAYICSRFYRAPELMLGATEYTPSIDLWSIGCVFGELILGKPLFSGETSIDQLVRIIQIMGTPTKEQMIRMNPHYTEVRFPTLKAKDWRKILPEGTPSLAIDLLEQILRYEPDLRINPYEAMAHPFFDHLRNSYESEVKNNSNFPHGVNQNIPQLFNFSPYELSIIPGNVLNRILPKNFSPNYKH

[11] = target: Mammalian GSK-3 (GSK-3α/β); test: Kinase assay with native porcine GSK3 purified from porcine brain, GS-1 peptide and [γ-33P] ATP; format: biochemical
Experimental: Porcine GSK3 (GSK-3α/β) was purified from porcine brain by affinity chromatography on immobilized axin according to the protocol described in Primot et al (Protein Expression and Purification 20, 394-404, 2000).
(§3) Both porcine GSK3 and PfGSK3 were assayed with 40 µM GS-1 peptide, a specific GSK-3 substrate, ([…]pEDEEE, synthesized by the Peptide Synthesis Unit, Institute of Biomolecular Sciences, University of Southampton, U.K.), in buffer A (25 mM Tris-HCl pH 7.5, 10 mM MgC12, 1 mM EGTA, 1 mM DTT, 50 µg heparin/ml, 0.5 mg BSA/ml) in the presence of 15 µM [γ-^33P] ATP (3000 Ci/mmol; 1 mCi/ml) in a final volume of 30 µl. After 30 min. incubation at 30°C, 25 µl aliquots of supernatant were spotted onto 2.5 x 3 cm pieces of Whatman P81 phosphocellulose paper, and, 20 sec. later, the filters were washed five times (for at least 5 min. each time) in 1 % phosphoric acid. The wet filters were counted in the presence of 1 ml ACS (Amersham) scintillation fluid. The kinase activity was expressed in pmoles phosphate incorporated in GS-1 or in percentage of the maximal activity.

[12] = target: T10, PfGSK-3 (Plasmodium falciparum, UniProt O77344); test: Kinase assay with recombinant (His)6-tagged PfGSK3, GS-1 peptide and [γ-33P] ATP; format: biochemical
T10 construct: His6; made in house; host or cells: Escherichia coli TOP 10
T10 sequence (O77344 1-440): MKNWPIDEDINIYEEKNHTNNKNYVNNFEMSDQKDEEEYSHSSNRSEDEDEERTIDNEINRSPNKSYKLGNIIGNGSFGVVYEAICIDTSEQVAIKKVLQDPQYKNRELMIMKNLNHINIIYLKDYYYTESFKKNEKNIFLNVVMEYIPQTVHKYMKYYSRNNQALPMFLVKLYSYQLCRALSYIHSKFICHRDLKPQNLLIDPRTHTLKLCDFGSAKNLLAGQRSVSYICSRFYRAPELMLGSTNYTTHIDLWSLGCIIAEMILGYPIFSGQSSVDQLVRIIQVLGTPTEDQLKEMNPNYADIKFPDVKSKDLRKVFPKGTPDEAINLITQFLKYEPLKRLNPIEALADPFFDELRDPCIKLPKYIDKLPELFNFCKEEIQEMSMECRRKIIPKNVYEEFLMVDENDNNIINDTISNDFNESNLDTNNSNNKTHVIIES
Experimental: Escherichia coli strain (TOP 10) containing a plasmid encoding PfGSK3 with six histidines (pBAD-Thio-TOPO, Invitrogen) were cultured into 500 ml of LB medium containing 100 µg/ml ampicillin, at 37°C, under shaking (250 rpm) until OD600 of 0.5 was reached. Expression was induced with 0.5 ml of 20% arabinose (0.02% final concentration). The culture was grown at 37°C with shaking for 4 hours. Cells were harvested by centrifugation at 9000 rpm for 10 min. The bacterial pellet was stored frozen at -80°C until further processing. For proteins extraction, pellet was resuspended in 10 ml of lysis buffer (50 mM NaH2PO4 pH 8.0, 300 mM NaCl, 10 mM imidazole) with the addition of protease inhibitors (complete EDTA-free, Roche) and lysozyme ([…] final). Cells were disrupted by sonication and the cell lysate was centrifuged at 24000 rpm for 30 min at 4°C. The recombinant PfGSK3 protein was purified by Immobilized Metal Affinity Chromatography according to a batch procedure on 1 ml of Nickel affinity resin (Ni-NTA agarose beads, Qiagen). Beads were washed four times with 10 ml of wash buffer (50 mM NaH2PO4 pH 8.0, 300 mM NaCl, 30 mM imidazole). Protein was eluted with one volume of elution buffer (50 mM NaH2PO4 pH 8.0, 300 mM NaCl, 250 mM imidazole, 10% glycerol).
as §3

IC50 ([11]; -(10) taken as no inhibition at 10, read-out: IC50 Mammalian GSK-3) [µM] | anti-mammalian GSK-3 IC50 values ([11]; result in words) | anti-PfGSK-3 IC50 values ([12]; result in words) | IC50 ([12]; unit only in the introducing sentence b99, not in the table, read-out: IC50 PfGSK-3) [µM] | Structure (SMILES) | IC50 [1] [µM] | IC50 [2] [µM] | IC50 [3] [µM] | IC50 [4] [µM] | IC50 [5] [µM] | IC50 [6] [µM] | IC50 [7] [µM] | IC50 [8] [µM] | IC50 [9] [µM] | IC50 [10] [µM]
– | – | – | – | N#Cc1c(N)nc2sc(C(=O)c3ccc(Cl)cc3)c(N)c2c1-c1ccccc1I [Compound 1, 3,6-diamino-2-(4-chlorobenzoyl)-4-(2-iodophenyl)thieno[2,3-b]pyridine-5-carbonitrile] | > 100 | 15.5 | > 100 | > 100 | 1.9 | > 100 | > 100 | > 100 | 80 | > 100
> 10 | do not demonstrate good | particularly good | 3.8 | N#Cc1c(N)nc2sc(C(=O)c3ccc(Cl)c(Cl)c3)c(N)c2c1-c1ccccc1Br [Compound 21, 3,6-diamino-4-(2-bromophenyl)-2-(3,4-dichlorobenzoyl)thieno[2,3-b]pyridine-5-carbonitrile] | – | – | – | – | – | – | – | – | – | –
